Data: publication PMC6751206, “Epigenetic re-wiring of breast cancer by pharmacological targeting of C-terminal binding protein” (Cell Death & Disease, 2019)

Columns and labels:
CtBP1/CtBP2 heterodimer [1] = molecular target: T1, CtBP1/CtBP2 heterodimer (Homo sapiens, UniProt P56545+Q13363); assay: acceptor photobleaching FRET of CtBP1/CtBP2 dimerization in MDA-MB-231 cells; assay type: cell-based; conditions: 10 μM compound; live-cell heterodimerization read-out
T1 construct: CFP/YFP fusions of CtBP1 and CtBP2 (pSCFP3A, pSYFP2); heterodimer

CtBP1/CtBP2 heterodimer [2] = molecular target: T1, CtBP1/CtBP2 heterodimer; assay: as above; assay type: cell-based; conditions: live-cell heterodimerization read-out; dose-response

SMILES | FRET signal decrease at 10 μM (CtBP1/CtBP2 heterodimer [1]) | IC50 (CtBP1/CtBP2 heterodimer [2]) [µM]
CC(C)C(NC(=O)C(=O)O)C(=O)O (stereo not drawn) [CI19] | significant decrease in the paired CtBP1-YFP/CtBP2-CFP FRET signal, after incubation with CI19, CI22, CI23 or CI24 | 
O=C(O)C(=O)Nc1ccccc1 [CI22] | significant decrease in the paired CtBP1-YFP/CtBP2-CFP FRET signal, after incubation with CI19, CI22, CI23 or CI24 | 
Nc1nc(C(=O)C(=O)O)cs1 [CI24] |  | 10 to 20
